The values that follow are results of earlier work, collected in patent US20020137779A1, “Use of L-2-oxothiazolidine-4-carboxylic acid for the treatment of type 2 diabetes” (Advanced Biochemicals Inc., priority 2001, published 2002).

The test system of this data set is mice. Particulars: oral administration at 9.5 mmol/kg in mice; cited from earlier work.

As for `CC(=O)Nc1ccc(O)cc1` [acetaminophen, reference compound], the mortality result was “more than 90%”.
